A short description of the data set: solvent given as SMILES.

“And” between values parts separate entries of the source, which are not always exact repeats. Identical values can stand only once.

For `N#CC(C#N)=C(/C=C/c1cc2c3c(c1)CCCN3CCC2)c1ccc2c3c(cccc13)CC2`, the absorption maximum worked out at 527 nm (in C1CCOC1); 540 nm (in CC#N); 535 nm (in CC(C)=O); 523 nm (in CCOC(C)=O); 550 nm (in CN(C)C=O); 541 nm (in CO). Also, the absorption maximum reads like this: (in Cc1ccccc1) 526 nm; (in ClC(Cl)Cl) 538 nm.

For the setting “in ClCCl”, `CN(C)c1ccc(/C=C/c2cnc(C#Cc3ccc(C#N)cc3)o2)cc1` gave an absorption maximum of 390 nm.

As to `c1ccc2c(c1)ccc1ccccc12`, the absorption maximum (in Cc1ccccc1) is 295 nm.

Take `CCCCCCC(CCCCCC)N1C(=O)c2cccc3c(-c4ccc([Si](C)(C)C)cc4)ccc(c23)C1=O`: the absorption maximum reads like this: (in CCCCCC) 343.4 nm; (in CCCCCCCCCCCCCC) 344.4 nm; (in CCCCCCCCCCCO) 355 nm; (in CCCCO) 357.6 nm; (in CN(C)C=O) 356 nm; (in Cc1ccccc1) 353.4 nm. The same compound came in with an absorption maximum (in ClC(Cl)Cl) of 356 nm.

Regarding `CCN(CC)c1ccc2c(c1)C(C)(C)C(=O)C=C2`, the absorption maximum (in O) stood at 429 nm.

Under “in CO”, `COc1ccc(/C=C/c2cc[n+]3ccc(/C=C/c4ccc(OC)cc4)cc3c2)cc1` gave an absorption maximum of 444 nm.

The compound `CCCCCCCCCCCCN1C(=O)c2c(c3ccc4cc(-c5ccc(OC)cc5)c(OC)cc4c3c3c2ccc2cc(-c4ccc(OC)cc4)c(OC)cc23)C1=O` returned an absorption maximum (in ClCCl) of 443 nm.

Take `CCCCCCN1C(=O)c2cccc3cc(/N=C\c4nc5ccccc5s4)cc(c23)C1=O`: where the note is “in ClC(Cl)Cl”, the absorption maximum came out at 370 nm.

For the setting “in CC#N”, `CCOC(=O)c1c2c3c(ccc(F)c3c3cc4ccccc4cc13)N(C)C2=O` registered an absorption maximum of 410 nm.

As to `CCN(CC)c1ccc(-c2nc(Oc3ccc(-c4nc5ccccc5[nH]4)cc3)nc(Oc3ccc(-c4nc5ccccc5[nH]4)cc3)n2)cc1`, the absorption maximum (in CN(C)C=O) is listed as 376 nm.

On to `CCN(CC)c1ccc2cc(-c3cc(SC)c(C#N)c(=O)o3)c(=O)oc2c1`, for which the absorption maximum was 512 nm (in C1CCOC1); 514 nm (in CC#N); 514 nm (in CC(C)=O); 509 nm (in CCOC(C)=O); 521 nm (in CN(C)C=O); 514 nm (in CO). In addition, the absorption maximum runs as follows: (in CS(C)=O) 527 nm; (in Cc1ccccc1) 509 nm; (in ClC(Cl)Cl) 517 nm; (in ClCCl) 520 nm.

As to `O=C1C=C(Nc2ccccc2)C(=O)c2ccccc21`, the absorption maximum was 450 nm (in CCCCCC) and 466 nm (in CO).

As to `CC1(C)CC(=O)C2=C(C1)Oc1ccc3ccc(O)cc3c1C2c1ccccn1` (configuration not stated), the absorption maximum worked out at 335 nm (in C1CCOC1); 335 nm (in C1COCCO1); 334 nm (in CC#N); 276 nm (in CCCCCCC); 334 nm (in CCO); 341 nm (in CO). Besides, the absorption maximum (in O) is 274 nm.

Consider `O=S1(=O)C2=C(c3ccc(N(c4ccccc4)c4ccccc4)cc31)C1(C3=C(c4ccccc41)S(=O)(=O)c1cc(N(c4ccccc4)c4ccccc4)ccc13)c1ccccc12`, for which the absorption maximum by setting is: (in C1CCOC1) 443 nm; (in CC#N) 446 nm; (in CCCCCC) 434 nm; (in Cc1ccccc1) 450 nm; (in ClCCl) 451 nm.

As to `c1ccc(-c2csc(-c3ccncc3)n2)cc1`, the absorption maximum (in CC#N) came out at 370 nm; the absorption maximum (in CCO) was 325 nm; the absorption maximum (in CN(C)C=O) amounted to 323 nm; the absorption maximum (in CS(C)=O) was determined as 325 nm; the absorption maximum (in ClCCl) amounted to 376 nm.

Consider `c1ccc2c(c1)c1ccccc1n2-c1ccc(-c2ccc(-n3c4ccccc4c4ccccc43)nc2-n2c3ccccc3c3ccccc32)nn1`, for which the absorption maximum runs as follows: (in CC#N) 335 nm; (in Cc1ccccc1) 346 nm; (in ClCCl) 337 nm.

For the compound `Cc1nc2cccc(-c3nc4ccc([N+](=O)[O-])cc4[nH]3)c2c(=O)[nH]1`, the absorption maximum (in CN(C)C=O) is given as 310 nm.

For the setting “in CN(C)C=O”, `O=c1[nH]nc(-c2ccc(/C=C/c3ccc(-c4n[nH]c(=O)o4)cc3)cc2)o1` registered an absorption maximum of 334 nm.

As for `CCCCCCCCCCCCOc1cc2c3cc(OCCCCCCCCCCCC)c(OCCCCCCCCCCCC)cc3c3c(cc(OCCCCCCCCCCCC)c4nc5cc(C#Cc6ccc(OCCCC)cc6)c(C#Cc6ccc(OCCCC)cc6)cc5nc43)c2cc1OCCCCCCCCCCCC`, the absorption maximum (in ClC(Cl)Cl) is recorded as 485 nm.

Under “in ClCCl”, `CCCCC(CC)Cn1c2cc(C#N)ccc2c2ccc(C#Cc3ccc4ccc5ccc(C#Cc6ccc7c8ccc(C#N)cc8n(CC(CC)CCCC)c7c6)c6ccc3c4c56)cc21` (configuration not stated) yielded an absorption maximum of 447 nm.

`CCCCC(CC)Cn1c2cc(C#N)ccc2c2ccc(C#N)cc21` (configuration not stated) returned an absorption maximum (in ClCCl) of 387 nm.

The compound `CN1C(=CC2=C([O-])C(=Cc3oc4ccccc4[n+]3C)C2=C(C#N)C#N)Sc2ccccc21` displayed an absorption maximum (in ClC(Cl)Cl) of 664 nm.

Compound `COC(=O)c1nc2cnc(N(C)C)nc2n1Cc1ccccc1` registered an absorption maximum (in C1COCCO1) of 358 nm, an absorption maximum (in CC#N) of 359 nm, an absorption maximum (in CO) of 362 nm and an absorption maximum (in ClCCl) of 362 nm.

Turning to `CCN(CC)c1ccc2cc(/C=C/C(O)=C3\CC/C(=C\c4cc5ccc(N(CC)CC)cc5oc4=O)C3=O)c(=O)oc2c1`, the absorption maximum (in C1COCCO1) is on record as 513 nm; the absorption maximum (in CC#N) amounted to 532 nm; the absorption maximum (in CC(C)=O) is 526 nm; the absorption maximum (in CCOC(C)=O) was determined as 516 nm; the absorption maximum (in CN(C)C=O) is listed as 546 nm; the absorption maximum (in CS(C)=O) is 556 nm. The absorption maximum reads like this: (in Cc1ccccc1) 511 nm; (in ClC(Cl)Cl) 525 nm.

Turning to `COC(=O)CNC(=O)c1nc2c(N(C)C)nc(N(C)C)nc2n1Cc1ccccc1`, the absorption maximum reads like this: (in C1COCCO1) 336 nm; (in CC#N) 336 nm; (in CO) 340 nm; (in ClCCl) 343 nm.

Consider `CC(C)(C)c1ccc2cc3c4cccc5cccc(c6cc(C(C)(C)C)cc(c2c1)c63)c54`, for which the absorption maximum (in CC1CCCCC1) is recorded as 438 nm.

Under “in Cc1ccccc1”, `COc1ccccc1-c1nc2c3cccnc3c3ncccc3c2n1-c1ccccc1` came in with an absorption maximum of 363 nm.

Consider `Cc1ccc(N(C)C)cc1C1=C2C=CC(=[N+](C)C)C=C2[Si](C)(C)c2cc(N(C)C)ccc21`, for which the absorption maximum (in O) is 646 nm.

`Cc1ccc(C2=Cc3ccc4ccccc4[n+]3[B-](F)(F)O2)cc1` gave an absorption maximum (in ClC(Cl)Cl) of 432 nm.

Consider `O=C(O)COc1cccc(OCC(=O)O)c1-c1c2ccc(=[N+]3CCCCC3)cc-2oc2cc(N3CCCCC3)ccc12`, for which the absorption maximum reads like this: (in CCO) 557 nm; (in O) 567 nm.

As to `CC1=[N+]2C(=C(c3ccc4c(c3)Cc3ccccc3-4)c3ccc(C)n3[B-]2(F)F)C=C1c1cc2n(c1)[B-](F)(F)[N+]1=CC=CC1=C2c1c(C)cc(C)cc1C`, the absorption maximum runs as follows: (in C1CCCCC1) 597.5 nm; (in CCOC(C)=O) 598.5 nm.

`CCN1c2ccc(/C=N/Nc3ccccn3)cc2Sc2cc(-c3ccccc3)ccc21` returned an absorption maximum (in C1CCOC1) of 379 nm, an absorption maximum (in CS(C)=O) of 387 nm, an absorption maximum (in Cc1ccccc1) of 382 nm and an absorption maximum (in ClCCl) of 384 nm.

The compound `CCOC(=O)CCCCCn1c2ccccc2c(=O)c2cc(N)ccc21` displayed an absorption maximum (in O) of 405 nm.

For the compound `COC(=O)c1cc(=O)n(C)c2cc(-c3ccc4c(c3)OCO4)sc12`, the absorption maximum (in CC#N) was determined as 400 nm and the absorption maximum (in ClCCl) amounted to 404 nm.

Where the note is “in C1COCCO1”, `COc1ccc(C2=C/C(=C\c3ccccc3)C(=O)N2)cc1OC` had an absorption maximum of 431 nm.

In turn, `Cc1cc(C)c([B-]2(c3c(C)cc(C)cc3C)[O+]=P(c3ccccc3)(c3ccccc3)c3cc(C#Cc4ccccc4)sc3-c3sc(C#Cc4ccccc4)cc32)c(C)c1` came in with an absorption maximum (in C1CCOC1) of 417 nm.

In turn, `CCCCCCCCN1C(=O)c2ccc3c4c(-c5ccc(N(c6ccccc6)c6ccccc6)cc5)cc5c6c(ccc(c7c(-c8ccc(N(c9ccccc9)c9ccccc9)cc8)cc(c2c37)C1=O)c64)C(=O)N(CCCCCCCC)C5=O` displayed an absorption maximum (in ClC(Cl)Cl) of 645 nm.

In the case of `NC(=O)Cc1cccc2ccccc12`, the absorption maximum runs as follows: (in C1COCCO1) 283 nm; (in CC#N) 282 nm; (in CCO) 282 nm; (in ClC(Cl)Cl) 283 nm; (in O) 280 nm; (in OCCO) 283 nm. This compound also showed an absorption maximum (in [2H]O[2H]) of 280 nm.

Compound `c1cc2c3c(c1)-c1cccc4cccc(c14)B3c1cccc3cccc-2c13` registered an absorption maximum (in Cc1ccccc1) of 466 nm.

On to `C=CB1C=Cc2ccc3ccccc3c2N1`, for which the absorption maximum (in C1CCCCC1) was 355 nm.

`CC1=[N+]2C(=C(c3ccc(N(C)C)cc3)c3ccc(C)n3[B-]2(F)F)C=C1`: the absorption maximum (in C1CCCCC1) stood at 508 nm; the absorption maximum (in C1CCOC1) was 506 nm; the absorption maximum (in CC#N) turned out to be 503 nm; the absorption maximum (in CC(=O)C(C)(C)C) was 505 nm; the absorption maximum (in CC(C)=O) came out at 504 nm; the absorption maximum (in CCCCCC) turned out to be 507 nm. For the same compound, the absorption maximum is 505 nm and 504 nm (in CCOC(C)=O); 504 nm and 503 nm (in CO); 509 nm (in Cc1ccccc1); 509 nm (in ClC(Cl)Cl).

With `c1ccc(-c2ccc(-c3ccccc3)cc2)cc1`, the absorption maximum (in C1CCOC1) was found to be 281 nm, the absorption maximum (in C1COCCO1) is given as 276 nm and the absorption maximum (in CCO) is reported as 280 nm.

As to `Cc1cc(=O)c2c(ccc3ccc(O)cc32)o1`, the absorption maximum (in CC#N) was found to be 336 nm.

For the setting “in CN(C)C=O”, `C(=C\c1ccc(-c2nnc(-c3ccccc3)o2)cc1)/c1ccc(-c2nnc(-c3ccccc3)o2)cc1` gave an absorption maximum of 347 nm.

Regarding `COc1ccc2c(c1)-c1ccccc1C2=O`, the absorption maximum is, setting by setting: (in C1CCCCC1) 365 nm; (in CC#N) 379 nm; (in CCO) 387 nm.

For the origin of these results see the Deep4Chem optical property database.
